According to US9018200B2, “Substituted piperidinyl compounds useful as GPR119 agonists” (Merck Sharp & Dohme Corp., priority 2011, dated 2015):
Read-outs that look alike come from different tables or passages of the source.

Biological target: T1, human GPR119 (Homo sapiens, UniProt Q8TDV5)
T1 sequence (Q8TDV5 1-308 limits assumed): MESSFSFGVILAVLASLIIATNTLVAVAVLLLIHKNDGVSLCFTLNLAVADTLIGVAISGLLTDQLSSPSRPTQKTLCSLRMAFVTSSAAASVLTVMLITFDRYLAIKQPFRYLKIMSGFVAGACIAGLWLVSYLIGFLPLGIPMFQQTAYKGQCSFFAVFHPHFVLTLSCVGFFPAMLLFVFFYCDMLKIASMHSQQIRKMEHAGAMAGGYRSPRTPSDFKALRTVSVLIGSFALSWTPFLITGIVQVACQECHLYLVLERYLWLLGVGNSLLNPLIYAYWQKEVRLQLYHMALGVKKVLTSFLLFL
Assay: Measurement of GPR119 signaling (cAMP assay) in HEK 293 cells stably transfected with human GPR119
Type: cell-based
Description: Measurement of GPR119 Signaling (Cyclic AMP (cAMP) Assay)
Human embryonic kidney (HEK) 293 cell lines stably transfected with human GPR119 were maintained in Dulbecco's Modified Eagle Medium (DMEM) containing fetal bovine serum (FBS), penicillin-streptomycin, HEPES buffer (4-(2-hydroxyethyl)-1-piperazineethane sulfonic acid), and hygromycin. For the cAMP assay, the transfected cells were harvested using a non-enzymatic cell dissociation solution (GIBCO 2672), pelleted and resuspended in stimulation buffer (DMEM, 25 mM HEPES, 0.1% bovine serum albumin (BSA), pH 7.4 in the presence of 100 μM phosphodiesterase inhibitors). The adenylate cyclase assay was constructed following the LANCE™ cAMP Kit (Perkin Elmer, AD0264) instructions.
Briefly, cells with Alexa Fluor® 647-anti cAMP antibody were incubated with 10 point series diluted test article in stimulation buffer with a final concentration of 2.5% DMSO for 45 minutes. The reaction was stopped by incubating with the supplied detection buffer containing the europium chelate of the Eu-SA/Biotin-cAMP tracer for 3 hours. The assay was performed in duplicate in a 384 well plate for duplicate plates and fluorescence was measured at 665 nm. Basal activity was determined using a DMSO control and maximum response was defined as cAMP stimulation produced by an internal agonist control. Standard cAMP concentrations were assayed concurrently for conversion of fluorescence signal to cAMP level. The data was analyzed using 4-parameter curve fit in Microsoft Excel. […]

Row | Structure (SMILES) | EC50 | EC50 (table of Examples 5-56)
1 | CS(=O)(=O)c1ccc(OCC[C@@H]2C[C@@H]2C2CCN(CC(F)(F)F)CC2)cc1 [Example 4, 4-[(1R,2S)-2-{2-[4-(Methylsulfonyl)phenoxy]ethyl}cyclopropyl]-1-(2,2,2-trifluoroethyl)piperidine] | 0.176 µM | 
2 | CCC(F)(F)CN1CCC([C@H]2C[C@H]2CCOc2cc(F)c(C(=O)NC3CC3)c(F)c2)CC1 [Example 5] |  | 0.00043 µM
3 | CCC(F)(F)CN1CCC([C@H]2C[C@H]2CCOc2cc(F)c(C(=O)NC3(C)CC3)c(F)c2)CC1 [Example 7] |  | 0.0012 µM
4 | O=C(NCC1CCCO1)c1ccc(OCC[C@@H]2C[C@@H]2C2CCN(CC(F)(F)C(F)(F)F)CC2)cc1F (some centres unmarked) [Example 8] |  | 0.0016 µM
5 | CC(C)(CO)NC(=O)c1ccc(OCC[C@@H]2C[C@@H]2C2CCN(CC(F)(F)C(F)(F)F)CC2)cc1F [Example 9] |  | 0.00234 µM
6 | O=C(NCC1(O)CC1)c1ccc(OCC[C@@H]2C[C@@H]2C2CCN(CC(F)(F)C(F)(F)F)CC2)cc1F [Example 10] |  | 0.00302 µM
7 | O=C(NC1CC1)c1ccc(OCC[C@@H]2C[C@@H]2C2CCN(CC(F)(F)C(F)F)CC2)cc1F [Example 11] |  | 0.00316 µM
8 | CC(C)(C)NC(=O)c1ccc(OCC[C@@H]2C[C@@H]2C2CCN(CC(F)(F)C(F)(F)F)CC2)cc1F [Example 13] |  | 0.00383 µM
9 | CS(=O)(=O)c1ccc(OCC[C@@H]2C[C@@H]2C2CCN(CC(F)(F)C(F)(F)F)CC2)cc1F [Example 14] |  | 0.00435 µM
10 | O=C(NC1CC1)c1c(F)cc(OCC[C@@H]2C[C@@H]2C2CCN(CC(F)(F)F)CC2)cc1F [Example 15] |  | 0.00528 µM
11 | O=C(NCCO)c1ccc(OCC[C@@H]2C[C@@H]2C2CCN(CC(F)(F)C(F)(F)F)CC2)cc1F [Example 17] |  | 0.00538 µM
12 | O=C(NC1CC1(F)F)c1c(F)cc(OCC[C@@H]2C[C@@H]2C2CCN(CC(F)(F)F)CC2)cc1F (some centres unmarked) [Example 18] |  | 0.00587 µM
13 | CC(C)(C)NC(=O)c1c(F)cc(OCC[C@@H]2C[C@@H]2C2CCN(CC(F)(F)F)CC2)cc1F [Example 19] |  | 0.0122 µM
14 | O=C(c1ccc(OCC[C@@H]2C[C@@H]2C2CCN(CC(F)(F)C(F)(F)F)CC2)cc1F)N1CCC(O)C1 (some centres unmarked) [Example 20] |  | 0.0134 µM
15 | CS(=O)(=O)c1ccc(OCC[C@@H]2C[C@@H]2C2CCN(CC(F)(F)C(F)(F)F)CC2)nc1 [Example 21] |  | 0.014 µM
16 | CC(C)(O)C1CCCN(C(=O)c2ccc(OCC[C@@H]3C[C@@H]3C3CCN(CC(F)(F)C(F)(F)F)CC3)cc2F)C1 (some centres unmarked) [Example 23] |  | 0.0184 µM

Row | Structure (SMILES) | EC50 | EC50 (table of Examples 5-56)
17 | O=C(NC1CC(F)(F)C1)c1c(F)cc(OCC[C@@H]2C[C@@H]2C2CCN(CC(F)(F)F)CC2)cc1F [Example 24] |  | 0.0203 µM
18 | CCC(F)(F)CN1CCC([C@H]2C[C@H]2CCOc2ccc(S(C)(=O)=O)c(F)c2)CC1 [Example 25] |  | 0.0225 µM
19 | CCC(F)(F)CN1CCC([C@H]2C[C@H]2CCOc2cc(F)c(S(C)(=O)=O)c(F)c2)CC1 [Example 28] |  | 0.0353 µM
20 | O=C(c1c(F)cc(OCC[C@@H]2C[C@@H]2C2CCN(CC(F)(F)F)CC2)cc1F)N1CC(F)(F)C1 [Example 31] |  | 0.0458 µM
21 | COCCNC(=O)c1c(F)cc(OCC[C@@H]2C[C@@H]2C2CCN(CC(F)(F)F)CC2)cc1F [Example 33] |  | 0.068 µM
22 | O=C(NC1CCOCC1)c1c(F)cc(OCC[C@@H]2C[C@@H]2C2CCN(CC(F)(F)F)CC2)cc1F [Example 34] |  | 0.0773 µM
23 | Cc1nc(C#N)cc(OCC[C@@H]2C[C@@H]2C2CCN(CC(F)(F)F)CC2)n1 [Example 35] |  | 0.126 µM
24 | CS(=O)(=O)c1ccc(OCC[C@@H]2C[C@@H]2C2CCN(CC(F)(F)F)CC2)cc1 [Example 36] |  | 0.176 µM
25 | O=C(c1ccc(OCC[C@@H]2C[C@@H]2C2CCN(CC(F)(F)F)CC2)cc1F)N1CCC(O)C1 (some centres unmarked) [Example 38] |  | 0.257 µM
26 | O=C(NC1CC1)c1ccc(OCC[C@@H]2C[C@@H]2C2CCN(CCC(F)(F)F)CC2)cc1F [Example 41] |  | 0.0593 µM
27 | CC(C)(CN1CCC([C@H]2C[C@H]2CCOc2ccc(C(=O)NC3CC3)c(F)c2)CC1)C(F)(F)F [Example 42] |  | 0.00234 µM
28 | CC(=O)c1ccc(OCC[C@@H]2C[C@@H]2C2CCN(CC(F)(F)C(F)(F)F)CC2)cc1F [Example 44] |  | 0.0516 µM
29 | FC(F)(F)C(F)(F)CN1CCC([C@H]2C[C@H]2CCOc2ccc(-n3cncn3)cc2)CC1 [Example 50] |  | 0.0269 µM
30 | COC(=O)c1c(F)cc(OCC[C@@H]2C[C@@H]2C2CCN(CC(F)(F)F)CC2)cc1F [Example 51] |  | 0.0287 µM
31 | Cc1nnc(-c2ccc(OCC[C@@H]3C[C@@H]3C3CCN(CC(F)(F)F)CC3)cc2F)o1 [Example 54] |  | 0.0595 µM
32 | C=CCCC(=O)c1ccc(OCC[C@@H]2C[C@@H]2C2CCN(CC(F)(F)C(F)(F)F)CC2)cc1F [Example 56] |  | 0.0134 µM

Other lines, results leading:

Row | EC50 | EC50 (table of Examples 5-56) | Structure (SMILES)
33 | 0.0287 µM |  | COC(=O)c1c(F)cc(OCC[C@@H]2C[C@@H]2C2CCN(CC(F)(F)F)CC2)cc1F [Example 1, Methyl 2,6-difluoro-4-(2-{(1S,2R)-2-[1-(2,2,2-trifluoroethyl)piperidin-4-yl]cyclopropyl}ethoxy)benzoate]
34 | 0.00528 µM |  | O=C(NC1CC1)c1c(F)cc(OCC[C@@H]2C[C@@H]2C2CCN(CC(F)(F)F)CC2)cc1F [Example 3, N-Cyclopropyl-2,6-difluoro-4-(2-{(1S,2R)-2-[1-(2,2,2-trifluoroethyl)piperidin-4-yl]cyclopropyl}ethoxy)benzamide]
35 |  | 0.00052 µM | O=C(NC1CC1)c1ccc(OCC[C@@H]2C[C@@H]2C2CCN(CC(F)(F)C(F)(F)F)CC2)cc1F [Example 6]
36 |  | 0.00369 µM | O=C(NCc1cnoc1)c1ccc(OCC[C@@H]2C[C@@H]2C2CCN(CC(F)(F)C(F)(F)F)CC2)cc1F [Example 12]
37 |  | 0.00534 µM | CCC(F)(F)CN1CCC([C@H]2C[C@H]2CCOc2ccc(C(=O)NC3CC3)c(F)c2)CC1 [Example 16]
38 |  | 0.0167 µM | O=C(NC1CC1)c1ccc(OCC[C@@H]2C[C@@H]2C2CCN(CC(F)(F)F)CC2)cc1F [Example 22]
39 |  | 0.0236 µM | CS(=O)(=O)c1ccc(OCC[C@@H]2C[C@@H]2C2CCN(CC(F)(F)C(F)(F)F)CC2)cc1 [Example 26]
40 |  | 0.0278 µM | CS(=O)(=O)c1ccc(OCC[C@@H]2C[C@@H]2C2CCN(CC(F)(F)F)CC2)nc1 [Example 27]
41 |  | 0.199 µM | Cc1cc(OCC[C@@H]2C[C@@H]2C2CCN(CC(F)(F)F)CC2)cc(C#N)n1 [Example 37]
42 |  | 0.27 µM | O=C1Cc2cc(OCC[C@@H]3C[C@@H]3C3CCN(CC(F)(F)F)CC3)ccc2N1 [Example 39]
43 |  | 0.776 µM | CC(F)(F)CN1CCC([C@H]2C[C@H]2CCOc2ccc(S(C)(=O)=O)cn2)CC1 [Example 40]
44 |  | 0.00713 µM | O=C1Cc2cc(OCC[C@@H]3C[C@@H]3C3CCN(CC(F)(F)C(F)(F)F)CC3)cc(F)c2N1 [Example 43]
45 |  | 0.00165 µM | CCC(F)(F)CN1CCC([C@H]2C[C@H]2CCOc2cc(F)c(C(=O)C3CC3)c(F)c2)CC1 [Example 45]
46 |  | 0.00731 µM | Cc1nnc(-c2ccc(OCC[C@@H]3C[C@@H]3C3CCN(CC(F)(F)C(F)(F)F)CC3)cc2F)o1 [Example 46]
47 |  | 0.0242 µM | FC(F)(F)C(F)(F)CN1CCC([C@H]2C[C@H]2CCOc2ccc(-n3cnnn3)cc2)CC1 [Example 49]
48 |  | 0.0408 µM | Cc1nc(-c2ccc(OCC[C@@H]3C[C@@H]3C3CCN(CC(F)(F)C(F)(F)F)CC3)cc2)no1 [Example 52]
49 |  | 0.0579 µM | CC(C)(C)NC(=O)c1ccc(OCC[C@@H]2C[C@@H]2C2CCN(CC(F)(F)F)CC2)cc1F [Example 53]
50 |  | 0.568 µM | CS(=O)(=O)c1c(F)cc(COC[C@@H]2C[C@@H]2C2CCN(CC(F)(F)F)CC2)cc1F [Example 55]
